From US12692254B2, “Benzimidazole inhibitors of PAD enzymes” (BRISTOL-MYERS SQUIBB COMPANY, priority 2018, dated 2026)

molecular target: human PAD4 (hPAD4) (Homo sapiens, UniProt Q9UM07); experiment: RFMS human PAD4 functional assay (rapid-fire mass spectrum); format: biochemical; settings: 5 nM hPAD4 enzyme, 250 μM BAEE, 50 μM Calcium; 30 min preincubation, 90 min reaction at 37° C.
Summary of the method: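 PAD4 (10 nM) preincubated 30 min with compound (top final 50 μM), then BAEE substrate added in pH 7.5 HEPES buffer with DTT, 50 μM calcium, TPEN; 90 min at 37° C. After TCA quench, citrulline derivatized with phenyl glyoxal (4 mM final, 30 min, 37° C) and quantified by RapidFire MS against internal standard.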

Chain of human PAD4 (hPAD4) (Q9UM07 whole entry): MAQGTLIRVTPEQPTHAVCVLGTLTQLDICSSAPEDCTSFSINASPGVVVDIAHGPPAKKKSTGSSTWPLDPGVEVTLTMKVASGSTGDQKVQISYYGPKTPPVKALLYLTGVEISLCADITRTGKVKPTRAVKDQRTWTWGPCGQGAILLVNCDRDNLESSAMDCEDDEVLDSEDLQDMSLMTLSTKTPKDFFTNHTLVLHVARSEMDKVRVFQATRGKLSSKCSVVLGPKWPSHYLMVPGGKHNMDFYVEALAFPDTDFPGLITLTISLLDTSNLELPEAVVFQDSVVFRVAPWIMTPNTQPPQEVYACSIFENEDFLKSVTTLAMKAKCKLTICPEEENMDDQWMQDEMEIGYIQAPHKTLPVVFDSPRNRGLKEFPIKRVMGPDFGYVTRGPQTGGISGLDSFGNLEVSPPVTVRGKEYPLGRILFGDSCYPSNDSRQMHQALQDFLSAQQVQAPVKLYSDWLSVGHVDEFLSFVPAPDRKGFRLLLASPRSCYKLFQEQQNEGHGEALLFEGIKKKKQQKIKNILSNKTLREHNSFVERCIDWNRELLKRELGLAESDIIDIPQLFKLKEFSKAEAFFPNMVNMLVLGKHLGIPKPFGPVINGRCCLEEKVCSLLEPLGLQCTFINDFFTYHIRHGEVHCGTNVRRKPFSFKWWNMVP

Row | SMILES | IC50 [nM]
1 | COc1cc(C(=O)N2CCC[C@@H](N)C2)cc2nc(-c3cc4cccnc4n3CC3CC3)n(CC3CN(C(=O)c4ccccc4)C3)c12 [Example 413, (3R)-1-{1-[(1-benzoylazetidin-3-yl)methyl]-2-[1-(cyclopropylmethyl)-1H-pyrrolo[2,3-b]pyridin-2-yl]-7-methoxy-1H-1,3-benzodiazole-5-carbonyl}piperidin-3-amine] | 263
2 | COc1cc(C(=O)N2CC3CCC2[C@@H]3N)cc2nc(-c3cc4ccccc4n3CC3CC3)n(CC3CN(C(=O)c4cnc(Cl)s4)C3)c12 (stereo partly drawn) [Example 414, (7R)-2-(1-{[1-(2-chloro-1,3-thiazole-5-carbonyl)azetidin-3-yl]methyl}-2-[1-(cyclopropylmethyl)-1H-indol-2-yl]-7-methoxy-1H-1,3-benzodiazole-5-carbonyl)-2-azabicyclo[2.2.1]heptan-7-amine] | 35
3 | COc1cc(C(=O)N2CC3CCC2[C@@H]3N)cc2nc(-c3cc4ccccc4n3CC3CC3)n(CC3CN(C(=O)c4ccc(C#N)nc4)C3)c12 (stereo partly drawn) [Example 415, 5-[3-({5-[(7R)-7-amino-2-azabicyclo[2.2.1]heptane-2-carbonyl]-2-{1-(cyclopropylmethyl)-1H-indol-2-yl]-7-methoxy-1H-1,3-benzodiazol-1-yl}methyl)azetidine-1-carbonyl]pyridine-2-carbonitrile] | 41
4 | COc1cc(C(=O)N2CC3CCC2[C@@H]3N)cc2nc(-c3cc4ccccc4n3CC3CC3)n(CC3CN(C(=O)c4ccsc4)C3)c12 (stereo partly drawn) [Example 416, (7R)-2-{2-[1-(cyclopropylmethyl)-1H-indol-2-yl]-7-methoxy-1-{[1-(thiophene-3-carbonyl)azetidin-3-yl]methyl}-1H-1,3-benzodiazole-5-carbonyl}-2-azabicyclo[2.2.1]heptan-7-amine] | 10
5 | COc1cc(C(=O)N2CC(Cn3c(-c4cc5ccccc5n4CC4CC4)nc4cc(C(=O)N5CC6CCC5[C@@H]6N)cc(OC)c43)C2)ccn1 (stereo partly drawn) [Example 417, (7R)-2-{2-[1-(cyclopropylmethyl)-1H-indol-2-yl]-7-methoxy-1-{[1-(2-methoxypyridine-4-carbonyl)azetidin-3-yl]methyl}-1H-1,3-benzodiazole-5-carbonyl}-2-azabicyclo[2.2.1]heptan-7-amine] | 11
6 | COc1cc(C(=O)N2CC3CCC2[C@@H]3N)cc2nc(-c3cc4ccccc4n3CC3CC3)n(CC3CN(C(=O)c4cc(C)nc(C)c4)C3)c12 (stereo partly drawn) [Example 418, (7R)-2-{2-[1-(cyclopropylmethyl)-1H-indol-2-yl]-1-{[1-(2,6-dimethylpyridine-4-carbonyl)azetidin-3-yl]methyl}-7-methoxy-1H-1,3-benzodiazole-5-carbonyl}-2-azabicyclo[2.2.1]heptan-7-amine] | 14
7 | COc1cc(C(=O)N2CC3CCC2[C@@H]3N)cc2nc(-c3cc4ccccc4n3CC3CC3)n(CC3CN(C(=O)c4ccnc(F)c4)C3)c12 (stereo partly drawn) [Example 419, (7R)-2-{2-[1-(cyclopropylmethyl)-1H-indol-2-yl]-1-{[1-(2-fluoropyridine-4-carbonyl)azetidin-3-yl]methyl}-7-methoxy-1H-1,3-benzodiazole-5-carbonyl}-2-azaticyclo[2.2.1]heptan-7-amine] | 16
8 | COc1cc(C(=O)N2CC3CCC2[C@@H]3N)cc2nc(-c3cc4ccccc4n3CC3CC3)n(CC3CN(C(=O)c4ccc(C(F)(F)F)cc4)C3)c12 (stereo partly drawn) [Example 420, (7R)-2-{2-[1-(cyclopropylmethyl)-1H-indol-2-yl]-7-methoxy-1-({1-[4-(trifluoromethyl)benzoyl]aze-tidin-3-yl}methyl)-1H-1,3-benzodiazole-5-carbonyl}-2-azabicyclo[2.2.1]heptan-7-amine] | 20
9 | COc1cc(C(=O)N2CC3CCC2[C@@H]3N)cc2nc(-c3cc4ccccc4n3CC3CC3)n(CC3CN(C(=O)c4ccnc(C)c4)C3)c12 (stereo partly drawn) [Example 421, (7R)-2-{2-[1-(cyclopropylmethyl)-1H-indol-2-yl]-7-methoxy-1-{[1-(2-methylpyridine-4-carbonyl)azetidin-3-yl]methyl}-1H-1,3-benzodiazole-5-carbonyl}-2-azabicyclo[2.2.1]heptan-7-amine] | 21
10 | COc1cc(C(=O)N2CC3CCC2[C@@H]3N)cc2nc(-c3cc4cccnc4n3CC3CC3)n(CC3CN(C(=O)c4cc(F)ccc4F)C3)c12 (stereo partly drawn) [Example 422, (7R)-2-{2-[1-(cyclopropylmethyl)-1H-pyrrolo[2,3-b]pyridin-2-yl]-1-{[1-(2,5-difluorobenzoyl)azetidin-3-yl]methyl}-7-methoxy-1H-1,3-benzodiazole-5-carbonyl}-2-azabicyclo[2.2.1]heptan-7-amine] | 22
11 | COc1cc(C(=O)N2CC3CCC2[C@@H]3N)cc2nc(-c3cc4cccnc4n3CC3CC3)n(CC3CN(C(=O)c4cccc(F)c4F)C3)c12 (stereo partly drawn) [Example 423, (7R)-2-{2-[1-(cyclopropylmethyl)-1H-pyrrolo[2,3-b]pyridin-2-yl]-1-{[1-(2,3-difluorobenzoyl)azetidin-3-yl]methyl}-7-methoxy-1H-1,3-benzodiazole-5-carbonyl}-2-azabicyclo[2.2.1]heptan-7-amine] | 23
12 | COc1cc(C(=O)N2CC3CCC2[C@@H]3N)cc2nc(-c3cc4ccccc4n3CC3CC3)n(CC3CN(C(=O)c4ccnc(Cl)c4)C3)c12 (stereo partly drawn) [Example 424, (7R)-2-(1-{[1-(2-chloropyridine-4-carbonyl)azetidin-3-yl]methyl}-2-[1-(cyclopropylmethyl)-1H-indol-2-yl]-7-methoxy-1H-1,3-benzodiazole-5-carbonyl)-2-azabicyclo[2.2.1]heptan-7-amine] | 25
13 | COc1cc(C(=O)N2C[C@H](N)C[C@@H](F)C2)cc2nc(-c3cc4ccccc4n3CC3CC3)n(CC3(F)CN(C(=O)c4ccccc4)C3)c12 [Example 425, (3R,5R)-1-{1-[(1-benzoyl-3-fluoroazetidin-3-yl)methyl]-2-[1-(cyclopropylmethyl)-1H-indol-2-yl]-7-methoxy-1H-1,3-benzodiazole-5-carbonyl}-5-fluoropiperidin-3-amine] | 27

The remaining lines, values ahead:

Row | IC50 [nM] | SMILES
14 | 24 | COc1cc(C(=O)N2CC3CCC2[C@@H]3N)cc2nc(-c3cc4ccccc4n3CC3CC3)n(CC3(C)CN(C(=O)c4ccccc4)C3)c12 (stereo partly drawn) [Example 426, (7R)-2-{1-[(1-benzoyl-3-methylazetidin-3-yl)methyl]-2-[1-(cyclopropylmethyl)-1H-indol-2-yl]-7-methoxy-1H-1,3-benzodiazole-5-carobnyl}-2-azabicyclo[2.2.1]heptan-7-amine]
15 | 24 | COc1cc(C(=O)N2CC3CCC2[C@@H]3N)cc2nc(-c3cc4cccnc4n3CC3CC3)n(CC3CN(C(=O)c4cc(F)cc(F)c4)C3)c12 (stereo partly drawn) [Example 427, (7R)-2-{2-[1-(cyclopropylmethyl)-1H-pyrrolo[2,3-b]pyridin-2-yl]-1-{[1-(3,5-difluorobenzoyl)azetidin-3-yl]methyl}-7-methoxy-1H-1,3-benzodiazole-5-carbonyl}-2-azabicyclo[2.2.1]heptan-7-amine]
16 | 28 | COc1cc(C(=O)N2CC3CCC2[C@@H]3N)cc2nc(-c3cc4cccnc4n3CC3CC3)n(CC3CN(C(=O)c4ccccc4Cl)C3)c12 (stereo partly drawn) [Example 428, (7R)-2-(1-{[1-(2-chlorobenzoyl)azetidin-3-yl]methyl}-2-[1-(cyclopropylmethyl)-1H-pyrrolo[2,3-b]pyridin-2-yl]-7-methoxy-1H-1,3-benzodiazole-5-carbonyl)-2-azabicyclo[2.2.1]heptan-7-amine]
17 | 29 | COc1cc(C(=O)N2CC3CCC2[C@@H]3N)cc2nc(-c3cc4cccnc4n3CC3CC3)n(CC3CN(C(=O)c4ccc(Cl)cc4)C3)c12 (stereo partly drawn) [Example 429, (7R)-2-(1-{[1-(4-chlorobenzoyl)azetidin-3-yl]methyl}-2-[1-(cyclopropylmethyl)-1H-pyrrolo[2,3-b]pyridin-2-yl]-7-methoxy-1H-1,3-benzodiazole-5-carbonyl)-2-azabicyclo[2.2.1]heptan-7-amine]
18 | 30 | COc1cc(C(=O)N2CC3CCC2[C@@H]3N)cc2nc(-c3cc4cccnc4n3CC3CC3)n(CC3CN(C(=O)C4CCC(F)(F)C4)C3)c12 (stereo partly drawn) [Example 430, (7R)-2-{2-[1-(cyclopropylmethyl)-1H-pyrrolo[2,3-b]pyridin-2-yl]-1-{[1-(3,3-difluorocyclopentanecarbonyl)azetidin-3-yl]methyl}-7-methoxy-1H-1,3-benzodiazole-5-carbonyl}-2-azabicyclo[2.2.1]heptan-7-amine]
19 | 30 | COc1cc(C(=O)N2CC3CCC2[C@@H]3N)cc2nc(-c3cc4cccnc4n3CC3CC3)n(CC3CN(C(=O)c4c(F)cccc4F)C3)c12 (stereo partly drawn) [Example 431, (7R)-2-{2-[1-(cyclopropylmethyl)-1H-pyrrolo[2,3-b]pyridin-2-yl]-1-{[1-(2,6-difluorobenzoyl)azetidin-3-yl]methyl}-7-methoxy-1H-1,3-benzodiazole-5-carbonyl}-2-azabicyclo[2.2.1]heptan-7-amine]
20 | 31 | COc1cc(C(=O)N2CC3CCC2[C@@H]3N)cc2nc(-c3cc4ccccc4n3CC3CC3)n(CC3(F)CN(C(=O)c4ccccc4)C3)c12 (stereo partly drawn) [Example 432, (7R)-2-{1-[(1-benzoyl-3-fluoroazetidin-3-yl)methyl]-2-[1-(cyclopropylmethyl)-1H-indol-2-yl]-7-methoxy-1H-1,3-benzodiazole-5-carbonyl}-2-azabicyclo[2.2.1]heptan-7-amine]
21 | 31 | COc1cc(C(=O)N2CC3CCC2[C@@H]3N)cc2nc(-c3cc4ccccc4n3CC3CC3)n(CC3CN(C(=O)c4ccn(C)c(=O)c4)C3)c12 (stereo partly drawn) [Example 433, 4-[3-({5-[(7R)-7-amino-2-azabicyclo[2.2.1]heptane-2-carbonyl]-2-[1-(cyclopropylmethyl)-1H-indol-2-yl]-7-methoxy-1H-1,3-benzodiazol-1-yl}methyl)azetidine-1-carbonyl]-1-methyl-1,2-dihydropyridin-2-one]
